How the values were obtained:
PARP7 = target: T1, PARP7 (Homo sapiens, UniProt Q7Z3E1); assay: Probe Displacement Assay for PARP7 (MSD electrochemiluminescent, biotinylated probe RBNO11147); conditions: displacement of biotinylated probe RBNO11147 from PARP7 NAD+-binding site; read-out: MSD ProbeDisp PARP7 IC50
T1 sequence (Q7Z3E1 1-657): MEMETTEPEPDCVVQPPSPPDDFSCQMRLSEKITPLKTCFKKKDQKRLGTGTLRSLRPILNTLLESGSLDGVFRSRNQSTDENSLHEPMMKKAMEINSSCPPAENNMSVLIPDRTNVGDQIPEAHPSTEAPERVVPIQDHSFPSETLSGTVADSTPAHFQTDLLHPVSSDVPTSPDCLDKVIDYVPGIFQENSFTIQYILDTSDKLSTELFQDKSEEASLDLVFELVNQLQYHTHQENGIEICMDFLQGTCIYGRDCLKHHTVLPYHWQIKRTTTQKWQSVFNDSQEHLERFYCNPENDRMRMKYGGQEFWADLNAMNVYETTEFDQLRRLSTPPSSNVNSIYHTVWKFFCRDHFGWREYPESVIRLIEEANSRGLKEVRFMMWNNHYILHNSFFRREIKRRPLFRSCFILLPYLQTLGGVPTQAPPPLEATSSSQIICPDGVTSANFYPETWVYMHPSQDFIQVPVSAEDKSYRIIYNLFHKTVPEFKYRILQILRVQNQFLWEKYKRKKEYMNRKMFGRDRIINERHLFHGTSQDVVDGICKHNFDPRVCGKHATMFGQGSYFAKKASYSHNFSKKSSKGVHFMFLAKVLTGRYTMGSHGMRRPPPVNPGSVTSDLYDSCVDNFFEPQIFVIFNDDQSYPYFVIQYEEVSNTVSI

[1] = test system: endogenous cellular STAT1 (phosphorylated at Tyr701) in NCI-H1373 cells; assay: Phospho-STAT1 (Tyr701) LANCE Ultra TR-FRET Detection Assay; format: cell-based; conditions: Homo sapiens, NCI-H1373, 48 h, phospho-STAT1 (Tyr701) induction, read-out: NH1373 pSTAT1 EC50

Row | SMILES | IC50 (PARP7) [nM] | EC50 [1] [nM]
1 | C[C@@H](CCCn1ccc2cc(-c3ccc(C(F)F)cn3)c(F)cc2c1=O)Nc1cn[nH]c(=O)c1C(F)(F)F [Example 33, 6-[5-(difluoromethyl)-2-pyridyl]-7-fluoro-2-[(4S)-4-[[6-oxo-5-(trifluoromethyl)-1H-pyridazin-4-yl]amino]pentyl]isoquinolin-1-one] | 0.5 | 168
2 | C[C@@H](CCCn1ccc2cc(-c3ncc(F)cn3)c(F)cc2c1=O)Nc1cn[nH]c(=O)c1C(F)(F)F [Example 34, 7-fluoro-6-(5-fluoropyrimidin-2-yl)-2-[(4S)-4-[[6-oxo-5-(trifluoromethyl)-1H-pyridazin-4-yl]amino]pentyl]isoquinolin-1-one] | 0.6 | 429
3 | C[C@@H](CCCn1ccc2cc(-c3ccc(F)cn3)c(F)cc2c1=O)Nc1cn[nH]c(=O)c1C(F)(F)F [Example 35, 7-fluoro-6-(5-fluoro-2-pyridyl)-2-[(4S)-4-[[6-oxo-5-(trifluoromethyl)-1H-pyridazin-4-yl]amino]pentyl]isoquinolin-1-one] | 0.5 | 436
4 | C[C@@H](CCCn1ccc2cc(-c3ncc(OC(F)F)cn3)c(F)cc2c1=O)Nc1cn[nH]c(=O)c1C(F)(F)F [Example 42, 6-[5-(difluoromethoxy)pyrimidin-2-yl]-7-fluoro-2-[(4S)-4-[[6-oxo-5-(trifluoromethyl)-1H-pyridazin-4-yl]amino]pentyl]isoquinolin-1-one] | 1 | 133
5 | C[C@@H](CCCn1ccc2cc(-c3ccc(OC(F)F)cn3)c(F)cc2c1=O)Nc1cn[nH]c(=O)c1C(F)(F)F [Example 43, 6-[5-(difluoromethoxy)-2-pyridyl]-7-fluoro-2-[(4S)-4-[[6-oxo-5-(trifluoromethyl)-1H-pyridazin-4-yl]amino]pentyl]isoquinolin-1-one] | 0.76 | 311
6 | C[C@@H](CCCn1ccc2cc(-c3ncc(C(F)(F)F)cn3)c(Cl)cc2c1=O)Nc1cn[nH]c(=O)c1C(F)(F)F [Example 44, 7-chloro-2-[(4S)-4-[[6-oxo-5-(trifluoromethyl)-1H-pyridazin-4-yl]amino]pentyl]-6-[5-(trifluoromethyl)pyrimidin-2-yl]isoquinolin-1-one] | 0.67 | 10000
7 | Cc1cc2cc(-c3ncc(C(F)(F)F)cn3)ccc2c(=O)n1CCC[C@H](C)Nc1cn[nH]c(=O)c1C(F)(F)F [Example 45, 3-methyl-2-[(4S)-4-[[6-oxo-5-(trifluoromethyl)-1H-pyridazin-4-yl]amino]pentyl]-6-[5-(trifluoromethyl)pyrimidin-2-yl]isoquinolin-1-one] | 1.19 | 617
8 | Cc1cn(CCC[C@H](C)Nc2cn[nH]c(=O)c2C(F)(F)F)c(=O)c2ccc(-c3ncc(C(F)(F)F)cn3)cc12 [Example 46, 4-methyl-2-[(4S)-4-[[6-oxo-5-(trifluoromethyl)-1H-pyridazin-4-yl]amino]pentyl]-6-[5-(trifluoromethyl)pyrimidin-2-yl]isoquinolin-1-one] | 0.824 | 432
9 | C[C@@H](CCCn1ccc2cc(-c3ccc(F)cn3)c(F)c(F)c2c1=O)Nc1cn[nH]c(=O)c1C(F)(F)F [Example 52, (S)-7,8-difluoro-6-(5-fluoropyridin-2-yl)-2-(4-((6-oxo-5-(trifluoromethyl)-1,6-dihydropyridazin-4-yl)amino)pentyl)isoquinolin-1(2H)-one] | 0.763 | 164
10 | C[C@@H](CCCn1ccc2cc(-c3ncc(C(F)F)cn3)c(F)c(F)c2c1=O)Nc1cn[nH]c(=O)c1C(F)(F)F [Example 53, (S)-6-(5-(difluoromethyl)pyrimidin-2-yl)-7,8-difluoro-2-(4-((6-oxo-5-(trifluoromethyl)-1,6-dihydropyridazin-4-yl)amino)pentyl)isoquinolin-1(2H)-one] | 0.496 | 17
11 | C[C@@H](CCCn1ccc2cc(-c3ncc(F)cn3)c(F)c(F)c2c1=O)Nc1cn[nH]c(=O)c1C(F)(F)F [Example 54, (S)-7,8-difluoro-6-(5-fluoropyrimidin-2-yl)-2-(4-((6-oxo-5-(trifluoromethyl)-1,6-dihydropyridazin-4-yl)amino)pentyl)isoquinolin-1(2H)-one] | 0.685 | 156

The remaining lines, values ahead:

Row | IC50 (PARP7) [nM] | EC50 [1] [nM] | SMILES
12 | 0.7 | 74.1 | O=c1[nH]ncc(N[C@H](CCCn2ccc3cc(-c4ncc(C(F)(F)F)cn4)c(F)cc3c2=O)C2CC2)c1C(F)(F)F [Example 36, 2-[(4R)-4-cyclopropyl-4-[[6-oxo-5-(trifluoromethyl)-1H-pyridazin-4-yl]amino]butyl]-7-fluoro-6-[5-(trifluoromethyl)pyrimidin-2-yl]isoquinolin-1-one]
13 | 0.4 | 42.7 | CC[C@@H](CCCn1ccc2cc(-c3ncc(C(F)(F)F)cn3)c(F)cc2c1=O)Nc1cn[nH]c(=O)c1C(F)(F)F [Example 37, 7-fluoro-2-[(4S)-4-[[6-oxo-5-(trifluoromethyl)-1H-pyridazin-4-yl]amino]hexyl]-6-[5-(trifluoromethyl)pyrimidin-2-yl]isoquinolin-1-one]
14 | 0.3 | 579 | C[C@@H](CCCn1ccc2cc(-c3ccc(C4(C#N)CC4)cn3)cc(F)c2c1=O)Nc1cn[nH]c(=O)c1C(F)(F)F [Example 38, 1-[6-[8-fluoro-1-oxo-2-[(4S)-4-[[6-oxo-5-(trifluoromethyl)-1H-pyridazin-4-yl]amino]pentyl]-6-isoquinolyl]-3-pyridyl]cyclopropanecarbonitrile]
15 | 2.5 | 890 | C[C@@H](CCCn1ccc2cc(-c3ccc(C4(C(F)(F)F)CC4)cn3)cc(F)c2c1=O)Nc1cn[nH]c(=O)c1C(F)(F)F [Example 39, 8-fluoro-2-[(4S)-4-[[6-oxo-5-(trifluoromethyl)-1H-pyridazin-4-yl]amino]pentyl]-6-[5-[1-(trifluoromethyl)cyclopropyl]-2-pyridyl]isoquinolin-1-one]
16 | 2.7 | 10000 | C[C@@H](CCCn1ccc2cc(-c3ccc(S(C)(=N)=O)cn3)cc(F)c2c1=O)Nc1cn[nH]c(=O)c1C(F)(F)F (stereo partly drawn) [Example 40, 8-fluoro-6-[5-(methylsulfonimidoyl)-2-pyridyl]-2-[(4S)-4-[[6-oxo-5-(trifluoromethyl)-1H-pyridazin-4-yl]amino]pentyl]isoquinolin-1-one]
17 | 3.7 | 144 | C[C@@H](CCCn1ccc2cc(-c3ccc(CC(F)(F)F)cn3)cc(F)c2c1=O)Nc1cn[nH]c(=O)c1C(F)(F)F [Example 41, 8-fluoro-2-[(4S)-4-[[6-oxo-5-(trifluoromethyl)-1H-pyridazin-4-yl]amino]pentyl]-6-[5-(2,2,2-trifluoroethyl)-2-pyridyl]isoquinolin-1-one]
18 | 1.27 | 10000 | O=c1[nH]ncc(N2C[C@H]3C[C@H]3[C@H]2CCCn2ccc3nc(-c4ccc(C(F)(F)F)cn4)ccc3c2=O)c1C(F)(F)F [Example 47, 6-[3-[(1R,2R,5S)-3-[6-oxo-5-(trifluoromethyl)-1H-pyridazin-4-yl]-3-azabicyclo[3.1.0]hexan-2-yl]propyl]-2-[5-(trifluoromethyl)-2-pyridyl]-1,6-naphthyridin-5-one]
19 | 0.897 | 338 | O=c1[nH]ncc(N2C[C@H]3C[C@H]3[C@H]2CCCn2ccc3cc(-c4ccc(C(F)(F)F)cn4)cc(F)c3c2=O)c1C(F)(F)F [Example 48, 8-fluoro-2-[3-[(1R,2R,5S)-3-[6-oxo-5-(trifluoromethyl)-1H-pyridazin-4-yl]-3-azabicyclo[3.1.0]hexan-2-yl]propyl]-6-[5-(trifluoromethyl)-2-pyridyl]isoquinolin-1-one]
20 | 0.413 | 54.1 | C[C@@H](CCCn1ccc2cc(-c3cc(N)c(C(F)(F)F)cn3)c(F)cc2c1=O)Nc1cn[nH]c(=O)c1C(F)(F)F [Example 49, 6-[4-amino-5-(trifluoromethyl)-2-pyridyl]-7-fluoro-2-[(4S)-4-[[6-oxo-5-(trifluoromethyl)-1H-pyridazin-4-yl]amino]pentyl]isoquinolin-1-one]
21 | 2.13 | 2760 | C[C@@H](CCCn1ccc2cc(-c3ccc(C(N)C(F)(F)F)cn3)c(F)cc2c1=O)Nc1cn[nH]c(=O)c1C(F)(F)F (stereo partly drawn) [Example 50, 6-[5-(1-amino-2,2,2-trifluoro-ethyl)-2-pyridyl]-7-fluoro-2-[(4S)-4-[[6-oxo-5-(trifluoromethyl)-1H-pyridazin-4-yl]amino]pentyl]isoquinolin-1-one]
22 | 0.692 | 39.1 | C[C@@H](CCCn1ccc2cc(-c3ccc(C(F)(F)F)cn3)c(F)c(F)c2c1=O)Nc1cn[nH]c(=O)c1C(F)(F)F [Example 55, (S)-7,8-difluoro-2-(4-((6-oxo-5-(trifluoromethyl)-1,6-dihydropyridazin-4-yl)amino)pentyl)-6-(5-(trifluoromethyl)pyridin-2-yl)isoquinolin-1(2H)-one]

From patent US12459922B2 (Gilead Sciences, Inc., priority 2022, dated 2025)
